A short description of data set [1]: Storage stability of aqueous diclofenac solutions complexed with HPBCD (colour). Type of data set: physicochemical. Here is the method:
Occasionally the complexation in cyclodextrin has been carried out to protect the active ingredients from degradation phenomena, however with modest results (International Journal of Photoenergy, 3, 2001, 205-211). […] Finally, storage stability tests were carried out with various aqueous solutions of diclofenac sodium entirely complexed with hydroxypropyl beta ciclodextrin (HPBCD), having the following composition: diclofenac sodium 40.6 mg; HPBCD 177.6 mg; purified water 782.4 mg.

Data set [2] in a line: Water solubility of the active ingredient at room temperature. Type of data set: physicochemical. Conditions: room temperature (20° C.). Here is the method:
In a further embodiment, the active ingredient is a water-soluble one, i.e. it has a water solubility at room temperature (20° C.) higher than 0.1% w/v, preferably higher than 0.5% w/v, or more preferably higher than 1% w/v. […] According to this embodiment, the present invention is characterized as a soft gelatin capsule having inside a fill comprising a water-soluble active ingredient containing nitrogen, wherein the wall of said capsule comprises hydroxypropyl beta cyclodextrin (HPBCD) in an amount being: (a) less than 10% by weight on the weight of the wall and (b) sub-stoichiometric to form an inclusion complex with the active ingredient present in the fill.

`O=C(O)Cc1ccccc1Nc1c(Cl)cccc1Cl` [diclofenac sodium]: the “colour of the solution” value in data set [1] (aqueous solution entirely complexed with HPBCD, 18 months at 30° C. and 65% R.H.) is given as “evident amber colour”.

Take `O=C(O)Cc1ccccc1Nc1c(Cl)cccc1Cl` [diclofenac]: the “colour of the solution” value in data set [1] (aqueous solution complexed in HPBCD, storage at 25° C.±2° C., 60±5% R.H.) is “amber colour”.

On to diclofenac epolamine [DHEP], for which the water solubility entry in data set [2] was “about 1.9 % w/v”.

The values are drawn from patent publication US11090271B2, “Soft gelatin capsules containing hydroxypropyl beta cyclodextrin with high stability” (ALTERGON S.A., priority 2017, dated 2021).
